Reference: the supplement of paper PMC10307832

How the values were obtained:
Assay in all cases: relative viability (nuclei count vs DMSO), 5 days (fraction); higher = more cells survive
Hydroxychloroquine = compound: CCN(CCO)CCCC(C)Nc1ccnc2cc(Cl)ccc12 [Hydroxychloroquine]
Summary of the method: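 After an overnight hold at 37 °C, lung cancer cell lines in 1536-well plates were pinned with five library-drug doses (not always all listed), each √10 from the next, on vehicle-anchored plates. The cells stayed 5 days without fresh medium, then a one-step fix, permeabilisation and Hoechst stain preceded 4× imaging and MetaXpress nuclear counts. A plate passed only with control CV under 25% and at least one doubling. Viability is the median, over plates, of treated-well nuclei relative to vehicle-well nuclei.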

[1] = compound: CCN(CCO)CCCC(C)Nc1ccnc2cc(Cl)ccc12 [Hydroxychloroquine] + CC(=O)Nc1cccc(-n2c(=O)n(C3CC3)c(=O)c3c(Nc4ccc(I)cc4F)n(C)c(=O)c(C)c32)c1 [Trametinib] (partner 0.02 µM)
Summary of the method: (§1)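 Cells from lung cancer lines were seeded into 1536-well plates and, one day later, dosed by pin tool. Treatments were either a single drug or a fixed dose of an anchor drug with five library-drug doses (not always all listed) in √10 steps. After 5 days, nuclei were stained in a one-step fixation (final 0.05% Triton X-100, 1% formaldehyde, 1 ug/ml Hoechst) and counted on 4× images, and relative viability is the treated-to-vehicle nuclei ratio, as the median of duplicate plates.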

[2] = compound: CCN(CCO)CCCC(C)Nc1ccnc2cc(Cl)ccc12 [Hydroxychloroquine] + COc1cccc2cc(-c3nc([C@H]4CC[C@H](C(=O)O)CC4)n4ncnc(N)c34)[nH]c12 [OSI-027] (partner 0.5 µM)
Summary of the method: as §1

[3] = compound: CCN(CCO)CCCC(C)Nc1ccnc2cc(Cl)ccc12 [Hydroxychloroquine] + N=C(N)NC(=N)NCCc1ccccc1 [Phenformin] (partner 250 µM)
Summary of the method: as §1

Cell Line: NCI-H2347
- relative viability (Hydroxychloroquine; 0.5 µM): 1.1
- relative viability (Hydroxychloroquine; 1.581 µM): 0.935
- relative viability (Hydroxychloroquine; 5 µM): 1.04
- relative viability (Hydroxychloroquine; 15.81 µM): 0.965
- relative viability (Hydroxychloroquine; 50 µM): 1.03
- relative viability ([1]; first compound 0.5 µM): 0.293
- relative viability ([1]; first compound 1.581 µM): 0.248
- relative viability ([1]; first compound 5 µM): 0.272
- relative viability ([1]; first compound 15.81 µM): 0.281
- relative viability ([1]; first compound 50 µM): 0.325
- relative viability ([2]; first compound 0.5 µM): 0.528
- relative viability ([2]; first compound 1.581 µM): 0.356
- relative viability ([2]; first compound 5 µM): 0.387
- relative viability ([2]; first compound 15.81 µM): 0.322
- relative viability ([2]; first compound 50 µM): 0.336
- relative viability ([3]; first compound 0.5 µM): 0.469
- relative viability ([3]; first compound 1.581 µM): 0.466
- relative viability ([3]; first compound 5 µM): 0.446
- relative viability ([3]; first compound 15.81 µM): 0.329
- relative viability ([3]; first compound 50 µM): 0.377

Cell Line: NCI-H2405
- relative viability (Hydroxychloroquine; 0.5 µM): 1.03
- relative viability (Hydroxychloroquine; 1.581 µM): 0.955
- relative viability (Hydroxychloroquine; 5 µM): 0.968
- relative viability (Hydroxychloroquine; 15.81 µM): 1
- relative viability (Hydroxychloroquine; 50 µM): 1.01
- relative viability ([1]; first compound 0.5 µM): 0.668
- relative viability ([1]; first compound 1.581 µM): 0.677
- relative viability ([1]; first compound 5 µM): 0.585
- relative viability ([1]; first compound 15.81 µM): 0.62
- relative viability ([1]; first compound 50 µM): 0.615
- relative viability ([2]; first compound 0.5 µM): 0.626
- relative viability ([2]; first compound 1.581 µM): 0.55
- relative viability ([2]; first compound 5 µM): 0.652
- relative viability ([2]; first compound 15.81 µM): 0.627
- relative viability ([2]; first compound 50 µM): 0.658
- relative viability ([3]; first compound 0.5 µM): 0.417
- relative viability ([3]; first compound 1.581 µM): 0.352
- relative viability ([3]; first compound 5 µM): 0.368
- relative viability ([3]; first compound 15.81 µM): 0.384
- relative viability ([3]; first compound 50 µM): 0.398

Cell Line: NCI-H3122
- relative viability (Hydroxychloroquine; 0.5 µM): 0.999
- relative viability (Hydroxychloroquine; 1.581 µM): 0.997
- relative viability (Hydroxychloroquine; 5 µM): 0.99
- relative viability (Hydroxychloroquine; 15.81 µM): 1.05
- relative viability (Hydroxychloroquine; 50 µM): 1.06
- relative viability ([1]; first compound 0.5 µM): 0.19
- relative viability ([1]; first compound 1.581 µM): 0.215
- relative viability ([1]; first compound 5 µM): 0.2
- relative viability ([1]; first compound 15.81 µM): 0.319
- relative viability ([1]; first compound 50 µM): 0.232
- relative viability ([2]; first compound 0.5 µM): 1.05
- relative viability ([2]; first compound 1.581 µM): 0.962
- relative viability ([2]; first compound 5 µM): 1.12
- relative viability ([2]; first compound 15.81 µM): 1.2
- relative viability ([2]; first compound 50 µM): 1.18
- relative viability ([3]; first compound 0.5 µM): 0.379
- relative viability ([3]; first compound 1.581 µM): 0.364
- relative viability ([3]; first compound 5 µM): 0.373
- relative viability ([3]; first compound 15.81 µM): 0.358
- relative viability ([3]; first compound 50 µM): 0.344

Cell Line: PC-3 [JPC-3]
- relative viability (Hydroxychloroquine; 0.5 µM): 1.01
- relative viability (Hydroxychloroquine; 1.581 µM): 1.08
- relative viability (Hydroxychloroquine; 5 µM): 0.957
- relative viability (Hydroxychloroquine; 15.81 µM): 1.06
- relative viability (Hydroxychloroquine; 50 µM): 1.02
- relative viability ([1]; first compound 0.5 µM): 0.694
- relative viability ([1]; first compound 1.581 µM): 0.69
- relative viability ([1]; first compound 5 µM): 0.668
- relative viability ([1]; first compound 15.81 µM): 0.723
- relative viability ([1]; first compound 50 µM): 0.681
- relative viability ([2]; first compound 0.5 µM): 0.743
- relative viability ([2]; first compound 1.581 µM): 0.642
- relative viability ([2]; first compound 5 µM): 0.82
- relative viability ([2]; first compound 15.81 µM): 0.745
- relative viability ([2]; first compound 50 µM): 0.924
- relative viability ([3]; first compound 0.5 µM): 0.448
- relative viability ([3]; first compound 1.581 µM): 0.457
- relative viability ([3]; first compound 5 µM): 0.448
- relative viability ([3]; first compound 15.81 µM): 0.432
- relative viability ([3]; first compound 50 µM): 0.507

Cell Line: PC-14
- relative viability (Hydroxychloroquine; 0.5 µM): 1.03
- relative viability (Hydroxychloroquine; 1.581 µM): 0.961
- relative viability (Hydroxychloroquine; 5 µM): 0.956
- relative viability (Hydroxychloroquine; 15.81 µM): 1.05
- relative viability (Hydroxychloroquine; 50 µM): 1.01
- relative viability ([1]; first compound 0.5 µM): 0.708
- relative viability ([1]; first compound 1.581 µM): 0.846
- relative viability ([1]; first compound 5 µM): 0.667
- relative viability ([1]; first compound 15.81 µM): 0.798
- relative viability ([1]; first compound 50 µM): 0.687
- relative viability ([2]; first compound 0.5 µM): 0.958
- relative viability ([2]; first compound 1.581 µM): 0.586
- relative viability ([2]; first compound 5 µM): 0.872
- relative viability ([2]; first compound 15.81 µM): 0.861
- relative viability ([2]; first compound 50 µM): 0.927
- relative viability ([3]; first compound 0.5 µM): 0.676
- relative viability ([3]; first compound 1.581 µM): 0.573
- relative viability ([3]; first compound 5 µM): 0.551
- relative viability ([3]; first compound 15.81 µM): 0.595
- relative viability ([3]; first compound 50 µM): 0.601

Cell Line: RERF-LC-KJ
- relative viability (Hydroxychloroquine; 0.5 µM): 0.937
- relative viability (Hydroxychloroquine; 1.581 µM): 0.978
- relative viability (Hydroxychloroquine; 5 µM): 0.99
- relative viability (Hydroxychloroquine; 15.81 µM): 0.939
- relative viability (Hydroxychloroquine; 50 µM): 1.05
- relative viability ([1]; first compound 0.5 µM): 0.858
- relative viability ([1]; first compound 1.581 µM): 0.826
- relative viability ([1]; first compound 5 µM): 0.825
- relative viability ([1]; first compound 15.81 µM): 0.83
- relative viability ([1]; first compound 50 µM): 0.886
- relative viability ([2]; first compound 0.5 µM): 0.587
- relative viability ([2]; first compound 1.581 µM): 0.5
- relative viability ([2]; first compound 5 µM): 0.537
- relative viability ([2]; first compound 15.81 µM): 0.631
- relative viability ([2]; first compound 50 µM): 0.609
- relative viability ([3]; first compound 0.5 µM): 0.4
- relative viability ([3]; first compound 1.581 µM): 0.402
- relative viability ([3]; first compound 5 µM): 0.406
- relative viability ([3]; first compound 15.81 µM): 0.402
- relative viability ([3]; first compound 50 µM): 0.408

Cell Line: SK-LU-1
- relative viability (Hydroxychloroquine; 0.5 µM): 1.19
- relative viability (Hydroxychloroquine; 1.581 µM): 0.983
- relative viability (Hydroxychloroquine; 5 µM): 0.949
- relative viability (Hydroxychloroquine; 15.81 µM): 1.03
- relative viability (Hydroxychloroquine; 50 µM): 1.08
- relative viability ([1]; first compound 0.5 µM): 0.454
- relative viability ([1]; first compound 1.581 µM): 0.374
- relative viability ([1]; first compound 5 µM): 0.508
- relative viability ([1]; first compound 15.81 µM): 0.462
- relative viability ([1]; first compound 50 µM): 0.404
- relative viability ([2]; first compound 0.5 µM): 0.394
- relative viability ([2]; first compound 1.581 µM): 0.348
- relative viability ([2]; first compound 5 µM): 0.337
- relative viability ([2]; first compound 15.81 µM): 0.334
- relative viability ([2]; first compound 50 µM): 0.34
- relative viability ([3]; first compound 0.5 µM): 0.505
- relative viability ([3]; first compound 1.581 µM): 0.528
- relative viability ([3]; first compound 5 µM): 0.544
- relative viability ([3]; first compound 15.81 µM): 0.538
- relative viability ([3]; first compound 50 µM): 0.429

Cell Line: SK-MES-1
- relative viability (Hydroxychloroquine; 0.5 µM): 1.06
- relative viability (Hydroxychloroquine; 1.581 µM): 0.959
- relative viability (Hydroxychloroquine; 5 µM): 1.07
- relative viability (Hydroxychloroquine; 15.81 µM): 1.05
- relative viability (Hydroxychloroquine; 50 µM): 0.995
- relative viability ([1]; first compound 0.5 µM): 0.558
- relative viability ([1]; first compound 1.581 µM): 0.52
- relative viability ([1]; first compound 5 µM): 0.538
- relative viability ([1]; first compound 15.81 µM): 0.559
- relative viability ([1]; first compound 50 µM): 0.553
- relative viability ([2]; first compound 0.5 µM): 0.623
- relative viability ([2]; first compound 1.581 µM): 0.381
- relative viability ([2]; first compound 5 µM): 0.712
- relative viability ([2]; first compound 15.81 µM): 0.67
- relative viability ([2]; first compound 50 µM): 0.589
- relative viability ([3]; first compound 0.5 µM): 0.668
- relative viability ([3]; first compound 1.581 µM): 0.741
- relative viability ([3]; first compound 5 µM): 0.723
- relative viability ([3]; first compound 15.81 µM): 0.693
- relative viability ([3]; first compound 50 µM): 0.635

Cell Line: SW 1573
- relative viability (Hydroxychloroquine; 0.5 µM): 0.918
- relative viability (Hydroxychloroquine; 1.581 µM): 0.832
- relative viability (Hydroxychloroquine; 5 µM): 0.983
- relative viability (Hydroxychloroquine; 15.81 µM): 1.07
- relative viability (Hydroxychloroquine; 50 µM): 1.02
- relative viability ([1]; first compound 0.5 µM): 0.617
- relative viability ([1]; first compound 1.581 µM): 0.595
- relative viability ([1]; first compound 5 µM): 0.55
- relative viability ([1]; first compound 15.81 µM): 0.625
- relative viability ([1]; first compound 50 µM): 0.499
- relative viability ([2]; first compound 0.5 µM): 0.591
- relative viability ([2]; first compound 1.581 µM): 0.524
- relative viability ([2]; first compound 5 µM): 0.674
- relative viability ([2]; first compound 15.81 µM): 0.649
- relative viability ([2]; first compound 50 µM): 0.826
- relative viability ([3]; first compound 0.5 µM): 0.356
- relative viability ([3]; first compound 1.581 µM): 0.333
- relative viability ([3]; first compound 5 µM): 0.402
- relative viability ([3]; first compound 15.81 µM): 0.402
- relative viability ([3]; first compound 50 µM): 0.368

Cell Line: UMC-11
- relative viability (Hydroxychloroquine; 0.5 µM): 0.988
- relative viability (Hydroxychloroquine; 1.581 µM): 0.849
- relative viability (Hydroxychloroquine; 5 µM): 1.01
- relative viability (Hydroxychloroquine; 15.81 µM): 1.05
- relative viability (Hydroxychloroquine; 50 µM): 1.12
- relative viability ([1]; first compound 0.5 µM): 0.642
- relative viability ([1]; first compound 1.581 µM): 0.431
- relative viability ([1]; first compound 5 µM): 0.762
- relative viability ([1]; first compound 15.81 µM): 0.669
- relative viability ([1]; first compound 50 µM): 0.741
- relative viability ([2]; first compound 1.581 µM): 0.402
- relative viability ([2]; first compound 5 µM): 0.486
- relative viability ([2]; first compound 15.81 µM): 0.403
- relative viability ([2]; first compound 50 µM): 0.538
- relative viability ([3]; first compound 1.581 µM): 0.305
- relative viability ([3]; first compound 5 µM): 0.308
- relative viability ([3]; first compound 15.81 µM): 0.315
- relative viability ([3]; first compound 50 µM): 0.335
